Assay results as given in patent publication US20260131015A1, “NEODEGRADER CONJUGATES” (priority 2022, published 2026).

Assays:
NCI-H1048 SCLC cell line = experiment: In Vitro Cytotoxicity Assay II (WST-8 cell viability); type: cell-based, human; conditions: NCI-H1048, 120 hours, WST-8, Table 4
Protocol: (§1) Cell lines were harvested and plated into 96-well plates. […] The cell viability was determined by colorimetric WST-8 assay (Dojindo Molecular Technologies, Inc.). The OD450 value was read using the SpectraMax M5 plate reader. The values were normalized for each cell line, and IC50s were calculated using the Prism software.

NCI-H526 SCLC cell line = experiment: as above; type: cell-based, human; conditions: NCI-H526, 120 hours, WST-8, Table 4
Protocol: as §1

[1] = test system: NCI-H526 human SCLC cell line; experiment: In Vitro Cytotoxicity Assay I (WST-8 cell viability); type: cell-based; conditions: NCI-H526, 120 hours, WST-8, Table 3
Protocol: (§2) The cell viability was determined by colorimetric WST-8 assay (Dojindo Molecular Technologies, Inc.). The OD450 value was read using the SpectraMax M5 plate reader. The values were normalized for each cell line, and IC50 values were calculated using the Prism software.

[2] = test system: IMR32 human neuroblastoma (NB) cell line; experiment: as above; type: cell-based; conditions: IMR32, 120 hours, WST-8, Table 3
Protocol: as §2

NCI-H146 SCLC cell line = experiment: In Vitro Cytotoxicity Assay II (WST-8 cell viability); type: cell-based; conditions: NCI-H146, 120 hours, WST-8, Table 4
Protocol: as §1

NCI-H510A SCLC cell line = experiment: as above; type: cell-based; conditions: 120 hours, WST-8, Table 4
Protocol: as §1

NCI-H82 SCLC cell line = experiment: as above; type: cell-based; conditions: NCI-H82, 120 hours, WST-8, Table 4
Protocol: as §1

[3] = test system: NCI-H526 human SCLC cell line; experiment: In Vitro Cytotoxicity Assay III (WST-8 cell viability); type: cell-based; conditions: NCI-H526, 120 hours, WST-8, Table 5
Protocol: as §1, with “IC50 values” for “IC50s”

[4] = test system: IMR32 human neuroblastoma (NB) cell line; experiment: as above; type: cell-based; conditions: IMR32, 120 hours, WST-8, Table 5
Protocol: as §1, with “IC50 values” for “IC50s”

`Cc1ccc(NC(=O)NCc2ccc3c(c2)CN(C2CCC(=O)NC2=O)C3=O)cc1Cl` (stereo not drawn) [CC-885, reference compound] gave an IC50 (NCI-H1048 SCLC cell line) of 0.0409 nM, an IC50 (NCI-H526 SCLC cell line) of 0.177 nM and an IC50 [1] of 0.118 nM. For the same compound, the IC50 [2] was 0.145 nM, the IC50 (NCI-H146 SCLC cell line) was 0.527 nM and the IC50 (NCI-H510A SCLC cell line) was 0.23 nM. The IC50 (NCI-H82 SCLC cell line) was 0.603 nM, the IC50 [3] was 0.128 nM and the IC50 [4] was 0.0994 nM.
